One data set relates to AMBRA1-DIC interaction. Briefly: Co-immunoprecipitation of AMBRA1 with dynein intermediate chain (DIC) after microtubule disruption. The format is cell-based, human. As to conditions: drugs which interfere with microtubule polymerisation. As for the experimental part: To this end, coimmunoprecipitation experiments were performed in 2F cells, using an antibody specific for the dynein intermediate chain (DIC). It was observed that, under control conditions, AMBRA1 is associated with DIC and is therefore part of the wider dynein machinery (FIG. 2b, third lane). […] DIC immunodepletion experiments confirmed that AMBRA1 is still associated with DLC1 after being released from DIC. On the other hand, only a fraction of DLC1 interacts with AMBRA1, since most DLC1 is still present in the complex, where it plays alternative functions (FIG. 2b).
It was then checked whether disruption of the microtubule network could interfere with the dynamics of AMBRA1 binding to the dynein motor complex.
In immunoprecipitation experiments, cells or tissues were lysed in HEMG buffer (25 mM Hepes pH 8.0, 100 mM NaCl, 25 mM MgCl2, 0.5% Triton X-100, 0.1 mM EDTA 10% glycerol) plus protease and phosphatase inhibitors (Protease inhibitor cocktail plus 1mM Sodium Fluoride, 1 mM Sodium orthovanadate, 1 mM Sodium molibdate; Sigma-Aldrich). […]

The target of a further data set is MyD88 (Homo sapiens, UniProt Q99836). Particulars: Loiarro et al., J. Leukocyte Biology 2007; cited from earlier work.
For the next data set, the system named is HEK293 cells. Briefly: Autophagy induction by peptides in HEK293 cells, Western blot of LC3 and p62. It is filed as cell-based. Particulars: 1-16 hours; for level of autophagy induced by the treatment: peptide 100-200 μM in culture medium, Western blot of LC3 and p62. An excerpt: In order to deregulate the AMBRA1-DLC1 interaction, three peptides (SEQ ID NO:1, SEQ ID NO:2 and SEQ ID NO:3) were selected for their likelihood to maintain the α-helix structure. SEQ ID NO:3 and SEQ ID NO:1 presented substitutions of the neutral residues of leucine into lysine, to increase the charge of the peptides (FIG. 5). The three peptides were synthesized in vitro with the addition of 11 arginine residues at the N-terminus and they were covalently conjugated with the FITC fluorochrome. The arginine residues allow an efficient incorporation of the peptides within the cells, whereas the FITC allows visualization of the peptides inside the cells and permit to monitor their stability upon time. Increasing doses of the peptides, respectively SEQ ID NO:3, SEQ ID NO:1 and SEQ ID NO:2 (100-200 μM) were added to the culture medium of HEK293 cells for increasing time (1-16 hours). The level of autophagy induced by the treatment was monitored by Western blot analyses of known markers of this process, such as LC3 and p62. […] Although limited, this effect is somewhat more desirable than stronger effects, because it avoids massive autophagy that would likely results in cell death in vivo.
Proteins were separated on NuPAGE Bis-Tris gel (Invitrogen) and electroblotted onto nitrocellulose (Protran, Schleicher & Schuell) or PVDF (Millipore) membranes. Blots were incubated with primary antibodies in 5% non-fat dry milk in TBS plus 0,1% Tween20 overnight at 4° C. Detection was achieved using horseradish peroxidase-conjugate secondary antibody (Biorad) and visualised with ECL plus (Amersham Bioscience).
A general note: Immunoblotting shows a protein as a band on a membrane.

In data set [1] the target is AMBRA1 full length (human, wild type) (UniProt Q9C0C7).

The values below come from patent US20110281804A1, “PEPTIDIC AND PEPTIDOMIMETIC COMPOUNDS FOR REGULATING AUTOPHAGY” (FONDAZIONE SANTA LUCIA, priority 2008, published 2011).

Sequence of MyD88 (Q99836 whole entry, species assumed): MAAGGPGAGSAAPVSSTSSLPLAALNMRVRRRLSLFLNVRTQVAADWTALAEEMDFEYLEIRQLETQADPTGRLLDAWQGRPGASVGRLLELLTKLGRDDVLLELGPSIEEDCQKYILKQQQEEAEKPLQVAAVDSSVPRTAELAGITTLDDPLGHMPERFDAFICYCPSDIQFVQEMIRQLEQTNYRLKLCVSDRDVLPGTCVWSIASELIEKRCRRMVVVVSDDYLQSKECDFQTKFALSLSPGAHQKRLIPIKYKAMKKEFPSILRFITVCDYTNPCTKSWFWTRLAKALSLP
Sequence of AMBRA1 full length (human, wild type) (Q9C0C7 other isoform, or with tags, fused parts or gaps): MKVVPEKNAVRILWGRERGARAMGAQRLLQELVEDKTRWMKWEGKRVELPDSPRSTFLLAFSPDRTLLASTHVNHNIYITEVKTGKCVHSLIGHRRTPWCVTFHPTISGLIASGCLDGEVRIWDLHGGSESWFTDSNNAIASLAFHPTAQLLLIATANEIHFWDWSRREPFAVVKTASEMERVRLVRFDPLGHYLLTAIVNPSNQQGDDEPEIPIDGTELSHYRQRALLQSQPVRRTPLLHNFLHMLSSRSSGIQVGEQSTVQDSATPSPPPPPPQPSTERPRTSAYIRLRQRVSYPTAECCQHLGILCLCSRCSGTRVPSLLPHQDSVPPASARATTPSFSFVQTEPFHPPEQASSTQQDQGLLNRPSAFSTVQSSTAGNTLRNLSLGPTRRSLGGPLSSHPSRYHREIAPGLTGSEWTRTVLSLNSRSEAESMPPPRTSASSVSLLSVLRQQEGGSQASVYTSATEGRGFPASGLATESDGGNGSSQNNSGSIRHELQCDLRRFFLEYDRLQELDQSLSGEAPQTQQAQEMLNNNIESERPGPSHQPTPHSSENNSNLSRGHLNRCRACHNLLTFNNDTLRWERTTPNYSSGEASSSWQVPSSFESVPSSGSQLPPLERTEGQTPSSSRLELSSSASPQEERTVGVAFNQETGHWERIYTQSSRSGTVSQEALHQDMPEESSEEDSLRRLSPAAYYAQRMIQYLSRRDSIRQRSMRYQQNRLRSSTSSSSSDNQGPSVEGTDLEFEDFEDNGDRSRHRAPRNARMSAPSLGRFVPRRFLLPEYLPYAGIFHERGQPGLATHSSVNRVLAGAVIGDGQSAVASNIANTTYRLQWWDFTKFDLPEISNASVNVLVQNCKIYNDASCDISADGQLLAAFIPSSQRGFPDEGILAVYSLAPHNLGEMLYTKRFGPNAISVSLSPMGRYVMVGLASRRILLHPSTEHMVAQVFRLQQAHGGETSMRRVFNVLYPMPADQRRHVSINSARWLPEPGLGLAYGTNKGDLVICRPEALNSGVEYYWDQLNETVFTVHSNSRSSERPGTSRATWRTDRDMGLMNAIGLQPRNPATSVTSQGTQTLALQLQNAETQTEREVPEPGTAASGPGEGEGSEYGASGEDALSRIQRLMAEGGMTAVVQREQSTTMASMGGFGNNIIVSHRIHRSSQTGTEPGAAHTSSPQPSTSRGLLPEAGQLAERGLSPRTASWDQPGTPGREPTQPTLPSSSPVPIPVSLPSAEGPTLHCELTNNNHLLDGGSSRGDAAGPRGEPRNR

In the case of `COC(=O)Nc1nc2ccc(C(=O)c3cccs3)cc2[nH]1` [Nocodazole], the AMBRA1-DIC interaction result with AMBRA1-DIC interaction is “did not impair”.

Turning to `NC(=O)[C@H]1CCS[C@@H]2C[C@]3(CCCN3C(=O)Cc3ccc(NC(=O)COc4ccc(Cl)cc4Cl)cc3)C(=O)N12` [ST2825], at MyD88, the “activity and specificity of inhibition compared with the original MyD88 inhibitory peptide” value was “maintained the same activity and specificity of inhibition”. In the case of `CC[C@]1(O)C[C@@H]2CN(CCc3c([nH]c4ccccc34)[C@@](C(=O)OC)(c3cc4c(cc3OC)N(C)[C@H]3[C@@](O)(C(=O)OC)[C@H](OC(C)=O)[C@]5(CC)C=CCN6CC[C@]43[C@@H]65)C2)C1` [Vinblastine], the AMBRA1-DIC interaction entry in the data set with AMBRA1-DIC interaction is “did not impair”. Regarding “SEQ ID NO:1: Peptide with TQT triplet followed by α-helix residues; leucine residues substituted into lysine to increase charge (SQGTQTKAKQK; listed as Homo sapiens)”, the p62 protein levels entry with HEK293 cells (100-200 μM, Western blot (FIG. 6A)) is reported as “decrease”. The “shorter isoform of LC3” value with HEK293 cells (100-200 μM, Western blot (data not shown)) was “increase”. Further, the “level of autophagy induced by the treatment” value in the data set with HEK293 cells was “induced an increase in autophagy”. Turning to “SEQ ID NO:3: Peptide selected to maintain α-helix structure; leucine residues substituted into lysine to increase charge (TQTKAKQKQNAETQTER; listed as Homo sapiens)”, in the data set with HEK293 cells, the “level of autophagy induced by the treatment” value was “not so effective at the doses used”. In the case of “ULK1 wild type, myc-tagged (immunopurified complex)”, the “in vitro kinase assay (32P labelling, autoradiography)” value in data set [1] is on record as “AMBRA1 is phosphorylated by an ULK1 immunopurified complex”.
